Measured values taken from US20050008687A1, “Metal-porphyrin-complex-embedded liposomes, production process thereof, and medicines making use of the same” (Makoto Yuasa, priority 2003, published 2005).
Like-named read-outs stand apart in the source and are kept apart here.

How the values were obtained:
[1] = tested on: mouse lung cancer cells [Lewis Lung Carcinoma (LLC)]; experiment: Anticancer characteristic test: cytotoxicity test (apoptosis test) by the Alamar Blue technique; assay type: cell-based; conditions: FIG. 3
Experimental: Anticancer characteristics of a Pr-embedded liposome according to the present invention were examined by a cytotoxicity test (apoptosis test) making use of the Alamar Blue technique.
Employed were the FeT2 MPyP+4SAS-embedded DMPC liposome system (Invention Product 4, FeT2 MPyP concentrations: 0, 12.5, 25, 50, 100 μM) as a test sample and its corresponding cationic metalloporphyrin complex (FeT2 MPyP) and ion complex system (FeT2 MPyP+4SAS) as reference samples. As cells, on the other hand, mouse lung cancer cells [Lewis Lung Carcinoma (LLC), Riken Gene Bank] were used.
In the test, the mouse lung cancer cells were cultured in DMEM medium with 10% FBS added therein. Subsequent to determination of the cell count and adjustment of the cell concentration, the resulting cell suspension was added to the individual wells of a 96-well plate (100 μL/well, cell count: 1×10^4 cells/well), followed by incubation for 24 hours in a carbon dioxide incubator (CO2:5%). After the medium was removed from the plate, sample solutions of the respective concentrations (100 μL/well, sample concentrations: 0 to 100 μM), said sample solutions having had been prepared in advance, were added, followed by further incubation for 24 hours in the CO2 incubator.
An Alamar Blue solution, which had been sterilized by filtration, was added at 10 μL/well, followed by incubation for 5 hours. Subsequently, absorbance measurements (measurement wavelength: 570 nm, and reference wavelength: 600 nm) were conducted by using a microplate reader.
Anticancer characteristics of Pr-embedded liposomes according to the present invention were examined by a cytotoxicity test (apoptosis test) making use of the Alamar Blue technique as in Example 15.
As test samples, various Pr-embedded liposomes were used (metalloporphyrin complex concentrations: 0, 12.5, 25, 50, 100 μM). As reference samples, on the other hand, the components of the Pr-embedded liposomes, that is, the metalloporphyrin complexes (concentrations: 0, 12.5, 25, 50, 100 μM) and liposomes (concentrations: 2500, 5000, 10000, 20000 μM) were employed (the concentrations of both of the components were set corresponding to the concentrations of the Pr-embedded liposomes).
Provided as comparative samples were cisplatin (CDDP; concentrations: 0, 10, 20, 40, 80 μM) and mitomycin C (MMC; concentrations: 0, 7.5, 15, 30, 60 μM), which are anticancer agents employed at present. A test was conducted as in Example 15, and the following results were obtained.
Anticancer characteristics of pH-sensitive, Pr-embedded liposomes were examined by a cytotoxicity test (apoptosis test) making use of the Alamar Blue technique as in Example 15. […]

[2] = literature value reported by Fridovich et al.; Table 6; cited from earlier work
[3] = SOD activity (O2-. scavenging) by the stopped-flow method; assay type: biochemical; conditions: Table 8
Experimental: The SOD activity (in other words, O2^−. scavenging activity) of each Pr-embedded liposome was evaluated by the stopped-flow method proposed by Riley et al. [D. P. Riley, W. L. Rivers, and R. H. Weiss, Anal. Biochem., 196, 344 (1991)]. Specifically, the evaluation was conducted as will be described hereinafter. At 36° C., a solution of potassium superoxide as an O2^−. production source in dimethylsulfoxide and one of 60 mM HEPES/HEPESNa buffered solutions (pH 8.1), which contained one of the Pr-embedded liposomes at various concentrations, were promptly mixed, and the decay in absorbance at 245 nm due to O2^−. (the decay curve of O2^−. scavenging reaction) was measured with time. From the decay curve, a “ln (absorbance)-versus-time” relationship was determined, and further, an apparent rate constant was calculated from the slope of the relationship. From the slope of the “concentration of metalloporphyrin complex-versus-apparent rate constant” relationship, the rate constant (Kcat) of the O2^−. scavenging reaction was finally determined. As a reference, ion complexes (MnT4 MPyP+1SAS and MnT4 MPyP+4SAS) were also evaluated likewise in SOD activity.
Various metalloporphyrin complexes, which represent Pr-embedded liposomes, were compared in SOD activity. […] Incidentally, the samples were prepared and measured as in Examples 19 and 20.

[4] = SOD activity (O2-. scavenging) by the cytochrome c method; assay type: biochemical; conditions: Table 8
Experimental: The SOD activity (in other words, O2^−. scavenging activity) of each Pr-embedded liposome was evaluated by the cytochrome c method proposed by Mccord and Fridovich or Butler et al. [(1) J. M. Mccord and I. Fridovich, J. Biol. Chem., 244, 6049 (1969) and (2) J. Butler, W. H. Kopenol, E. Margoliash, J. Biol. Chem., 257, 10747 (1982)]. Specifically, the evaluation was conducted as will be described hereinafter. Solutions (Solutions A) of each Pr-embedded liposome were prepared at five or more concentration levels of from 0 to 1,000 μM in terms of the concentration of the metalloporphyrin. […] With the resultant mixture, a 7 μg/mL aqueous catalase solution (0.1 mL) and a 25 U/mL aqueous xanthine oxidase (XOD) solution (0.3 mL) were promptly mixed, and UV-vis was measured with time at 550 nm (absorption peak based on the formation of ferrocytochome c)(the final concentrations of the respective components in the test solution were as follows: the metal porphyrin complex, 0 to 100 SM; xanthine, 0.05 mM; XOD, 2.5U/mL; cytochrome c, 10 μM; catalase, 0.23 μg/mL). […] Finally, the concentration (IC50) of each metalloporphyrin complex at IC=50% was determined from the concentration of metalloporphyrin-versus-IC” relationship, and the IC50 was used as an index of the SOSD-activating effect of the metalloporphyrin complex (smaller IC50 indicates higher SOD activity). […]

[5] = literature value reported by Ohse, Kawakami et al.; Table 7; cited from earlier work

## [NH2][Pt]([NH2])([Cl])[Cl] [CDDP, cisplatin, reference compound]
[1]
  viability of LLC versus added concentration: dropped as the added concentration increased

## C[n+]1ccccc1-c1c2nc(c(-c3cccc[n+]3C)c3ccc([n-]3)c(-c3cccc[n+]3C)c3nc(c(-c4cccc[n+]4C)c4ccc1[n-]4)C=C3)C=C2.[Fe+2] [FeT2 MPyP, iron[5,10,15,20-tetrakis(2-methylpyridyl)porphyrin]]
[1]
  viability of LLC versus added concentration: dropped as the added concentration increased
[1]; FeT2 MPyP concentrations of 25 μM and higher
  viability of LLC compared with CDDP and MMC: lower than those in the cases of CDDP and MMC

## CO[C@@]12[C@H](COC(N)=O)C3=C(C(=O)C(C)=C(N)C3=O)N1C[C@@H]1N[C@@H]12 [MMC, mitomycin C, reference compound]
[1]
  viability of LLC versus added concentration: dropped as the added concentration increased

## C[n+]1ccc(-c2c3nc(c(-c4cc[n+](C)cc4)c4ccc([n-]4)c(-c4cc[n+](C)cc4)c4nc(c(-c5cc[n+](C)cc5)c5ccc2[n-]5)C=C4)C=C3)cc1.[Mn+2] [MnT4MPyP, manganese[5,10,15,20-tetrakis(4-methylpyridyl)porphyrin]]
[2]
  IC50: 700 nM
[3]
  Kcat: 2.2e+07 M⁻¹ s⁻¹
[4]
  IC50: 740 nM
[5]
  Kcat: 2.2e+07 M⁻¹ s⁻¹
